From patent US9555038B2, “Heterocycle-substituted tetracyclic compounds and methods of use thereof for the treatment of viral diseases” (Merck Sharp & Dohme Corp., priority 2013, dated 2017)
Read-outs that look alike come from different tables or passages of the source.

Assays:
[1] = tested on: HCV replicon 1A; test: Cell-based HCV Replicon Assay A, replicon 1A
How it was run: (§1)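 Replicon cells seeded at 2000 cells/well with compound, 10 serial dilutions starting at 333.3 nM to 1.667 nM, 0.5% DMSO, 5% FBS, harvested on day 3. Replicon RNA measured by multiplex TaqMan RT-PCR with cyclophilin as endogenous control, quantified from standard curves of Ct vs log ng RNA.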

[2] = tested on: HCV replicon 1B; test: Cell-based HCV Replicon Assay B, replicon 1B
Protocol: In an alternate assay (“Replicon Assay B”), 1000 cells were seeded per well in a 384-well collagen coated black plate from Greiner bio-one (Cat #781946) in 5% FBS. Inhibitors of this invention were added at 24 h post-seeding, and the plates were incubated for 3 days. Cells were subsequently lysed with Qiagen lysis buffer (Cat #1062731) to extract the RNA. HCV replicon RNA level was measured by real-time PCR using the RNA-to-CT kit from Applied Biosystem (Cat #4392656) and genotype-specific primers and probes. The amplicon was located within NS5B. The sequence of the PCR primers are as follows: 5B.2F, ATGGACAGGCGCCCTGA (SEQ. ID NO. 1); 5B.2R, […] (SEQ. ID NO. 2); the probe sequence was FAM-labeled CACGCCATGCGCTGCGG (SEQ. ID NO. 3). To detect genotype 1A the primer 1A F, TGCGGAACCGGTGAGTACA and 1A R, […] were used; the probe sequence was FAM-[…].
The real-time RT-PCR reactions were run on ABI PRISM 7900HT or Viia7 Sequence Detection System using the following program: 48° C. for 30 minutes, 95° C. for 10 minutes, 40 cycles of 95° C. for 15 sec, 60° C. for 1 minutes. The 50% effective concentration (EC50) was the drug concentration necessary to achieve an increase in the cycle threshold (CT) of 1 over the projected baseline CT.
Data was obtained for various compounds of the present invention using the methods described in the Example above, and is presented in the table immediately below. Data for replicons 1A, 1AY93H and 2B were obtained using Replicon Assay A and data for replicons 1AQ30D and 1B were obtained using Replicon Assay B.

[3] = tested on: HCV replicon 1AY93H; test: Cell-based HCV Replicon Assay A, replicon 1AY93H
How it was run: as §1

[4] = tested on: HCV replicon 2B; test: Cell-based HCV Replicon Assay A, replicon 2B
How it was run: as §1

[5] = Hepatitis C virus, read-out: 1A Y93H IC50 (nM), replicon 1AY93H
[6] = Hepatitis C virus, read-out: 2B IC50 (nM), replicon 2B
[7] = read-out: 1A Y93H IC50, replicon 1AY93H

In the case of COC(=O)N[C@H](C(=O)N1CCC[C@H]1c1ncc(-c2cc(F)c3c(c2)OC(c2sc(C4CC4)nc2C2CC2)n2c-3cc3cc(-c4cnc([C@@H]5CCCN5C(=O)[C@@H](NC(=O)OC)C(C)C)[nH]4)ccc32)[nH]1)C(C)C (single isomer, unassigned) [Compound 525], the IC50 ([1]; Hepatitis C virus) is reported as 0.0045 nM and the IC50 ([2]; Hepatitis C virus) is reported as 0.0022 nM.
In the case of COC(=O)N[C@H](C(=O)N1CCC[C@H]1c1ncc(-c2cc(F)c3c(c2)OC(c2cnc(C4CC4)s2)n2c-3c(C)c3cc(-c4cnc([C@@H]5CCCN5C(=O)[C@@H](NC(=O)OC)C(C)C)[nH]4)ccc32)[nH]1)C(C)C (single isomer, unassigned) [Compound 496], the IC50 [1] is reported as 0.0069 nM and the IC50 [2] is reported as 0.0035 nM.
CCN(CC)c1ncc(C2Oc3cc(-c4cnc([C@@H]5CCCN5C(=O)[C@@H](NC(=O)OC)C(C)C)[nH]4)cc(F)c3-c3cc4cc(-c5cnc([C@@H]6CCCN6C(=O)[C@@H](NC(=O)OC)C(C)C)[nH]5)ccc4n32)s1 (mixture of isomers) [Compound 404] gave an IC50 ([1]; Hepatitis C virus) of 0.012 nM, an IC50 [3, 5] of 0.0386 nM and an IC50 [4, 6] of 0.206 nM.
For CCCc1ncc(C2Oc3cc(-c4cnc([C@@H]5CCCN5C(=O)[C@@H](NC(=O)OC)C(C)C)[nH]4)cc(F)c3-c3cc4cc(-c5cnc([C@@H]6CCCN6C(=O)C(NC(=O)OC)C6CCOC(C)(C)C6)[nH]5)ccc4n32)s1 (single isomer, unassigned) [Compound 58], the IC50 ([1]; Hepatitis C virus) was 0.0026 nM, the IC50 [3, 7] was 0.0086 nM and the IC50 ([4]; read-out: 2B IC50, replicon 2B) was 0.003 nM.
COC(=O)NC(C(=O)N1CCC[C@H]1c1ncc(-c2ccc3c(c2)cc2n3C(c3cnc(CC(C)C)s3)Oc3cc(-c4cnc([C@@H]5CCCN5C(=O)[C@@H](NC(=O)OC)C(C)C)[nH]4)cc(F)c3-2)[nH]1)C1CCOC(C)(C)C1 (single isomer, unassigned) [Compound 543] gave an IC50 [1] of 0.0021 nM, an IC50 [3, 7] of 0.167 nM and an IC50 ([4]; read-out: 2B IC50, replicon 2B) of 0.153 nM.
COC(=O)N[C@H](C(=O)N1CCC[C@H]1c1ncc(-c2cc(F)c3c(c2)OC(c2cnc(-c4cnn(C)c4)s2)n2c-3cc3cc(-c4cnc([C@@H]5CCCN5C(=O)[C@@H](NC(=O)OC)C(C)C)[nH]4)ccc32)[nH]1)C(C)C (mixture of isomers) [Compound 425] showed an IC50 ([1]; Hepatitis C virus) of 0.0069 nM, an IC50 [3, 5] of 0.534 nM and an IC50 [4, 6] of 1.78 nM.
COC(=O)N[C@H](C(=O)N1CCC[C@H]1c1ncc(-c2cc(F)c3c(c2)OC(c2nc(C(F)(F)F)cs2)n2c-3cc3cc(-c4cnc([C@@H]5CCCN5C(=O)[C@@H](NC(=O)OC)C(C)C)[nH]4)ccc32)[nH]1)C(C)C (single isomer, unassigned) [Compound 419] gave an IC50 [1] of 0.0041 nM, an IC50 [3, 7] of 17.9 nM and an IC50 [4, 6] of 6.47 nM.
With COC(=O)N[C@H](C(=O)N1CCC[C@H]1c1ncc(-c2cc(F)c3c(c2)OC(c2nc4c(s2)CCC4)n2c-3cc3cc(-c4cnc([C@@H]5CCCN5C(=O)[C@@H](NC(=O)OC)C(C)C)[nH]4)ccc32)[nH]1)C(C)C (single isomer, unassigned) [Compound 505] the IC50 [1] was 0.0015 nM, the IC50 [3, 7] was 0.152 nM and the IC50 ([4]; read-out: 2B IC50, replicon 2B) was 0.22 nM.
COC(=O)NC(C(=O)N1CCC[C@H]1c1ncc(-c2ccc3c(c2)cc2n3C(c3cnc(C4CC4)s3)Oc3cc(-c4cnc([C@@H]5CCCN5C(=O)[C@@H](NC(=O)OC)C(C)C)[nH]4)cc(F)c3-2)[nH]1)C1C[C@@H](C)O[C@@H](C)C1 (single isomer, unassigned) [Compound 306] gave an IC50 ([1]; Hepatitis C virus) of 0.003 nM, an IC50 [3, 7] of 0.244 nM and an IC50 ([4]; read-out: 2B IC50, replicon 2B) of 0.145 nM.
CCc1nnc(C2Oc3cc(-c4cnc([C@@H]5CCCN5C(=O)[C@@H](NC(=O)OC)C(C)C)[nH]4)cc(F)c3-c3cc4cc(-c5cnc([C@@H]6CCCN6C(=O)C(NC(=O)OC)C(C)C)[nH]5)ccc4n32)s1 (single isomer, unassigned) [Compound 114] gave an IC50 [1] of 0.0027 nM and an IC50 ([2]; Hepatitis C virus) of 0.003 nM.
With CCc1ncc(C2Oc3cc(-c4cnc([C@@H]5CCCN5C(=O)[C@@H](NC(=O)OC)C(C)C)[nH]4)cc(F)c3-c3cc4cc(-c5cnc([C@@H]6CCCN6C(=O)[C@@H](NC(=O)OC)C(C)C)[nH]5)ccc4n32)s1 (single isomer, unassigned) [Compound 82] the IC50 [1] was 0.0023 nM, the IC50 [3, 7] was 1.58 nM and the IC50 ([4]; read-out: 2B IC50, replicon 2B) was 1.1 nM.
COC(=O)NC(C(=O)N1CCC[C@H]1c1ncc(-c2ccc3c(c2)cc2n3C(c3nc4c(s3)CCC4)Oc3cc(-c4cnc([C@@H]5CCCN5C(=O)[C@@H](NC(=O)OC)C(C)C)[nH]4)cc(F)c3-2)[nH]1)C1CCOC(C)(C)C1 (single isomer, unassigned) [Compound 537] gave an IC50 ([1]; Hepatitis C virus) of 0.0019 nM, an IC50 [3, 5] of 3.33 nM and an IC50 [4, 6] of 0.198 nM.
Work on COC(=O)N[C@H](C(=O)N1CCC[C@H]1c1ncc(-c2cc(F)c3c(c2)OC(c2cnc(-c4ccncn4)s2)n2c-3cc3cc(-c4cnc([C@@H]5CCCN5C(=O)[C@@H](NC(=O)OC)C(C)C)[nH]4)ccc32)[nH]1)C(C)C (stereo partly drawn) [Compound 503] yielded an IC50 ([1]; Hepatitis C virus) of 0.0022 nM, an IC50 [3, 5] of 0.149 nM and an IC50 [4, 6] of 0.362 nM.
Molecule COC(=O)N[C@H](C(=O)N1CCC[C@H]1c1ncc(-c2cc(F)c3c(c2)OC(c2cnc(-c4ccc(Cl)cc4)s2)n2c-3cc3cc(-c4cnc([C@@H]5CCCN5C(=O)[C@@H](NC(=O)OC)C(C)C)[nH]4)ccc32)[nH]1)C(C)C (single isomer, unassigned) [Compound 54] has an IC50 [1] of 0.0013 nM, an IC50 [3, 7] of 0.429 nM and an IC50 ([4]; read-out: 2B IC50, replicon 2B) of 0.248 nM.
COC(=O)NC(C(=O)N1[C@@H]2C[C@@H]2C[C@H]1c1ncc(-c2ccc3c(c2)cc2n3C(c3cnc(C(C)C)s3)Oc3cc(-c4cnc([C@@H]5CCCN5C(=O)[C@@H](NC(=O)OC)C(C)C)[nH]4)cc(F)c3-2)[nH]1)C1CCOC(C)(C)C1 (single isomer, unassigned) [Compound 68] gave an IC50 [1] of 0.0014 nM, an IC50 [3, 7] of 0.0996 nM and an IC50 [4, 6] of 0.253 nM.
Molecule COC(=O)NC(C(=O)N1[C@@H]2C[C@@H]2C[C@H]1c1ncc(-c2ccc3c(c2)cc2n3C(c3cnc(C4CC4)s3)Oc3cc(-c4cnc([C@@H]5CCCN5C(=O)[C@@H](NC(=O)OC)C(C)C)[nH]4)cc(F)c3-2)[nH]1)C1C[C@@H](C)O[C@H](C)C1 (single isomer, unassigned) [Compound 312] has an IC50 [1] of 0.0025 nM, an IC50 ([1]; Hepatitis C virus) of 0.0031 nM and an IC50 [2] of 0.003 nM. The IC50 ([2]; Hepatitis C virus) was 0.002 nM.
With COC(=O)NC(C(=O)N1CCC[C@H]1c1ncc(-c2ccc3c(c2)cc2n3C(c3cnc(CC4CC4)s3)Oc3cc(-c4cnc([C@@H]5CCCN5C(=O)[C@@H](NC(=O)OC)C(C)C)[nH]4)cc(F)c3-2)[nH]1)C1CCOC(C)(C)C1 (single isomer, unassigned) [Compound 538] the IC50 [1] was 0.0012 nM, the IC50 ([3]; replicon 1AY93H, read-out: 1A Y93H IC50) was 0.579 nM and the IC50 ([4]; replicon 2B, read-out: 2B IC50) was 0.117 nM.
In the case of CCCc1ncc(C2Oc3cc(-c4cnc([C@@H]5CCCN5C(=O)[C@@H](NC(=O)OC)C(C)C)[nH]4)cc(C)c3-c3cc4cc(-c5cnc([C@@H]6CCCN6C(=O)C(NC(=O)OC)C(C)(C)F)[nH]5)ccc4n32)s1 (single isomer, unassigned) [Compound 486], the IC50 ([1]; Hepatitis C virus) is reported as 0.0041 nM, the IC50 [3, 5] is reported as 0.342 nM and the IC50 [4, 6] is reported as 0.031 nM.
Molecule COC(=O)N[C@H](C(=O)N1CCC[C@H]1c1ncc(-c2cc(F)c3c(c2)OC(c2cnc(-c4ccc(F)cc4F)s2)n2c-3cc3cc(-c4cnc([C@@H]5CCCN5C(=O)[C@@H](NC(=O)OC)C(C)C)[nH]4)ccc32)[nH]1)C(C)C (stereo partly drawn) [Compound 55] has an IC50 ([1]; Hepatitis C virus) of 0.0012 nM, an IC50 [3, 5] of 0.0021 nM and an IC50 [4, 6] of 0.003 nM.
Molecule COC(=O)NC(C(=O)N1CCC[C@H]1c1ncc(-c2ccc3c(c2)cc2n3C(c3cnc(C4CC4)s3)Oc3cc(-c4cnc([C@@H]5CCCN5C(=O)[C@@H](NC(=O)OC)C(C)C)[nH]4)cc(C)c3-2)[nH]1)C1C[C@@H](C)O[C@@H](C)C1 (single isomer, unassigned) [Compound 215] has an IC50 ([1]; Hepatitis C virus) of 0.0024 nM, an IC50 [3, 5] of 0.828 nM and an IC50 [4, 6] of 0.09 nM.
For COC(=O)N[C@H](C(=O)N1CCC[C@H]1c1ncc(-c2cc(F)c3c(c2)OC(c2nc(C4CC4)sc2C)n2c-3cc3cc(-c4cnc([C@@H]5CCCN5C(=O)[C@@H](NC(=O)OC)C(C)C)[nH]4)ccc32)[nH]1)C(C)C (mixture of isomers) [Compound 451], the IC50 ([1]; Hepatitis C virus) was 0.0025 nM and the IC50 ([2]; Hepatitis C virus) was 0.0027 nM.
Work on CCc1ncc(C2Oc3cc(-c4cnc([C@@H]5CCCN5C(=O)[C@@H](NC(=O)OC)C(C)C)[nH]4)cc(F)c3-c3cc4cc(-c5cnc([C@@H]6CCCN6C(=O)C(NC(=O)OC)C6C[C@@H](C)O[C@@H](C)C6)[nH]5)ccc4n32)s1 (single isomer, unassigned) [Compound 35] yielded an IC50 ([1]; Hepatitis C virus) of 0.0026 nM, an IC50 [3, 7] of 0.161 nM and an IC50 ([4]; read-out: 2B IC50, replicon 2B) of 0.125 nM.
With COC(=O)N[C@H](C(=O)N1CCC[C@H]1c1ncc(-c2cc(F)c3c(c2)OC(c2cnc(C4CCCCC4)s2)n2c-3cc3cc(-c4cnc([C@@H]5CCCN5C(=O)[C@@H](NC(=O)OC)C(C)C)[nH]4)ccc32)[nH]1)C(C)C (single isomer, unassigned) [Compound 528] the IC50 [1] was 0.0014 nM, the IC50 [3, 7] was 1.15 nM and the IC50 ([4]; read-out: 2B IC50, replicon 2B) was 0.727 nM.
